Measurements reported in PMC3014287 (Molecular cell, 2010).

What was measured:
PKCβII [1] = biological target: T1, PKCβII (Homo sapiens, UniProt P05771); experiment: […] kinase assay with substrate peptide, Dixon plot; type: biochemical
PKCβII [2] = biological target: T1, PKCβII; experiment: as above; type: biochemical; remark: listed apart in the source
[3] = biological target: AKAP79(1-81)-CKAR (human) (UniProt P24588)

## O=C1NC(=O)C(c2c[nH]c3ccccc23)=C1c1c[nH]c2ccccc12 [BIS IV, bisindolylmaleimide IV]
PKCβII [1]
  32P kinase assay with substrate peptide, Dixon plot: BIS IV, a bisindolylmaleimide derivative that lacks the dimethylamino group is an uncompetitive inhibitor with respect to the substrate peptide

## CN(C)CCCn1cc(C2=C(c3c[nH]c4ccccc34)C(=O)NC2=O)c2ccccc21 [BIS I, bisindolylmaleimide I]
PKCβII [2]
  Ki: 14.5 ± 4.6 nM

## PKCβII (Calbiochem) (from UniProt P05771-2 1-673) (enzyme)
[3]
  T½ of the FRET response of the reporter to Oxo-M in CHO cells (cellular PKC): 8.3 s
